{"source": "paper PMC7730205", "about": "“Different Sensitivity of Control and MICU1- and MICU2-Ablated Trypanosoma cruzi Mitochondrial Calcium Uniporter Complex to Ruthenium-Based Inhibitors” (International Journal of Molecular Sciences, 2020)", "test_system": "T. cruzi epimastigotes (control, TcMICU1-KO, TcMICU2-KO)", "assay": "Mitochondrial membrane potential of digitonin-permeabilized epimastigotes (safranine O)", "format": "cell-based, Trypanosoma cruzi", "details": "TcMICU1-KO or TcMICU2-KO cells, succinate", "description": "To determine whether the defect in mitochondrial Ca^2+ uptake in the presence of inhibitors was not secondary to mitochondrial membrane depolarization, we measured the mitochondrial membrane potential (Δψm) of digitonin-permeabilized epimastigotes using safranine O in the presence of succinate as mitochondrial substrate.\nFigure 3 Effect of inhibitors on the mitochondrial membrane potential of epimastigotes. Changes in mitochondrial membrane potential (Δψm) of digitonin-permeabilized epimastigotes as detected by changes in safranine O fluorescence in control (a), TcMICU1-KO (b), and TcMICU2-KO (c) epimastigotes in the absence or presence of inhibitors. Cells (5 × 10^7) were added to the reaction buffer (2 mL) containing 0.2% BSA, 5 mM succinate, 50 μM EGTA and 5 μM safranine O. The reaction was started with 50 μM digitonin (DIG) in the presence or absence of the inhibitor, and 250 μM ADP, 1.5 μM carboxyatractyloside (CAT), 50 μM CaCl2 (Ca^2+), 200 μM EGTA, and 4 μM FCCP were added when indicated. A decrease in fluorescence after permeabilization with digitonin indicated the accumulation of the dye in energized mitochondria. The addition of ADP produced a small dissipation of membrane potential, indicating ADP phosphorylation. Δψm returned to its initial level after the addition of the adenine nucleotide translocator inhibitor CAT. The addition of FCCP collapsed the membrane potential. (d) Changes in safranine O fluorescence after digitonin addition (between 30 and 60 s) in control (C), TcMICU1-KO and TcMICU2-KO epimastigotes. […] Changes in safranine O fluorescence in control (C) (e), TcMICU1-KO (1-KO) (f), and TcMICU2-KO (2-KO) (g) epimastigotes after addition of ADP from three experiments like that shown in panels (a–c).\nEstimation of mitochondrial membrane potential in situ was done spectrofluorometrically using the indicator dye safranine O, as described previously. […] Fluorescence changes were monitored using the Hitachi F-7000 spectrofluorometer (excitation of 495 nm and emission of 586 nm)."}
{"smiles": "N.N.N.N.N.N.N.N.[Cl][Ru+3].[N-]=[Ru][Cl]", "note": "[Ru265]", "values": [{"measurement": "Effect on mitochondrial membrane potential (Δψm) and response to ADP", "result": "did not significantly affect"}]}
